# According to paper PMC11502502 (Nature cancer, 2024):
# Values joined by “and” are separate entries in the source; they are usually repeats but may differ in a detail not shown here. Equal entries are not always repeated.
# Assays:
# [1] = test system: MV-4–11 (AML)-xenografted mice; test: MV-4–11 AML xenograft efficacy and overall survival; assay type: in vivo; parameters: anti-tumor efficacy in MV-4-11 (AML)-tumor bearing mice in combination with SoC (tumor measurement per animal): unit not given here; settings: for Overall survival of MV-4-11 (AML)-tumor bearing mice: BRD-810 50 mg/kg; for anti-tumor efficacy in MV-4-11 (AML)-tumor bearing mice in combination with SoC (tumor measurement per animal): individual animals, BRD-810 50mg/kg
# [2] = test system: THP-1 (AML) xenografted mice; test: THP-1 AML xenograft efficacy; assay type: in vivo; parameters: anti-tumor efficacy in THP-1 (AML)-tumor bearing mice, individual measurements: unit not given here; settings: for anti-tumor efficacy in THP-1 (AML)-tumor bearing mice, individual measurements: Cytarabine, animals #3001-#3010
compound,measurement,setting,value
Nc1ncn([C@@H]2O[C@H](CO)[C@@H](O)[C@H]2O)c(=O)n1 [Azacytidine],Overall survival of MV-4-11 (AML)-tumor bearing mice,[1]; day 0 post treatment start,100
same,Overall survival of MV-4-11 (AML)-tumor bearing mice,[1]; day 1 post treatment start,100
same,anti-tumor efficacy in MV-4-11 (AML)-tumor bearing mice in combination with SoC (tumor measurement per animal),[1]; day 1 post treatment start,37.66 and 36.25 and 41.68 and 30.5 and 27.18 and 34.36 and 33.31 and 32.32 and 36.01 and 43.7
same,Overall survival of MV-4-11 (AML)-tumor bearing mice,[1]; day 4 post treatment start,100
same,anti-tumor efficacy in MV-4-11 (AML)-tumor bearing mice in combination with SoC (tumor measurement per animal),[1]; day 4 post treatment start,54.55 and 56.25 and 56.22 and 40.13 and 37.55 and 44.2 and 45.16 and 42.15 and 44.53 and 58.86
same,Overall survival of MV-4-11 (AML)-tumor bearing mice,[1]; day 8 post treatment start,100
same,anti-tumor efficacy in MV-4-11 (AML)-tumor bearing mice in combination with SoC (tumor measurement per animal),[1]; day 8 post treatment start,65.52 and 65.46 and 68.31 and 53.62 and 40.92 and 60.68 and 62.4 and 50.31 and 59.65 and 77.78
same,Overall survival of MV-4-11 (AML)-tumor bearing mice,[1]; day 11 post treatment start,100
same,anti-tumor efficacy in MV-4-11 (AML)-tumor bearing mice in combination with SoC (tumor measurement per animal),[1]; day 11 post treatment start,89.02 and 75.69 and 101.46 and 67.13 and 49.48 and 79.37 and 79.77 and 55.4 and 81.03 and 99.97
same,Overall survival of MV-4-11 (AML)-tumor bearing mice,[1]; day 15 post treatment start,100
same,anti-tumor efficacy in MV-4-11 (AML)-tumor bearing mice in combination with SoC (tumor measurement per animal),[1]; day 15 post treatment start,108.19 and 101.3 and 133.05 and 77.44 and 61.88 and 97.99 and 123.49 and 81.45 and 115.12 and 117.74
same,Overall survival of MV-4-11 (AML)-tumor bearing mice,[1]; day 16 post treatment start,100
same,anti-tumor efficacy in MV-4-11 (AML)-tumor bearing mice in combination with SoC (tumor measurement per animal),[1]; day 16 post treatment start,125.36 and 108.14 and 139.95 and 80.65 and 62.33 and 102.82 and 127.03 and 91.37 and 119.07 and 128.51
same,Overall survival of MV-4-11 (AML)-tumor bearing mice,[1]; day 17 post treatment start,100
same,anti-tumor efficacy in MV-4-11 (AML)-tumor bearing mice in combination with SoC (tumor measurement per animal),[1]; day 17 post treatment start,137.71 and 107.49 and 162.36 and 100.14 and 70.25 and 118.23 and 133.41 and 87.57 and 140.74 and 152.32
same,Overall survival of MV-4-11 (AML)-tumor bearing mice,[1]; day 19 post treatment start,0
same,Overall survival of MV-4-11 (AML)-tumor bearing mice,[1]; day 22 post treatment start,0
same,Overall survival of MV-4-11 (AML)-tumor bearing mice,[1]; day 23 post treatment start,0
same,Overall survival of MV-4-11 (AML)-tumor bearing mice,[1]; day 24 post treatment start,0
same,Overall survival of MV-4-11 (AML)-tumor bearing mice,[1]; day 25 post treatment start,0
same,Overall survival of MV-4-11 (AML)-tumor bearing mice,[1]; day 28 post treatment start,0
same,Overall survival of MV-4-11 (AML)-tumor bearing mice,[1]; day 30 post treatment start,0
same,Overall survival of MV-4-11 (AML)-tumor bearing mice,[1]; day 32 post treatment start,0
same,Overall survival of MV-4-11 (AML)-tumor bearing mice,[1]; day 34 post treatment start,0
same,Overall survival of MV-4-11 (AML)-tumor bearing mice,[1]; day 37 post treatment start,0
same,Overall survival of MV-4-11 (AML)-tumor bearing mice,[1]; day 39 post treatment start,0
same,Overall survival of MV-4-11 (AML)-tumor bearing mice,[1]; day 41 post treatment start,0
same,Overall survival of MV-4-11 (AML)-tumor bearing mice,[1]; day 44 post treatment start,0
same,Overall survival of MV-4-11 (AML)-tumor bearing mice,[1]; day 46 post treatment start,0
same,Overall survival of MV-4-11 (AML)-tumor bearing mice,[1]; day 48 post treatment start,0
same,Overall survival of MV-4-11 (AML)-tumor bearing mice,[1]; day 51 post treatment start,0
same,Overall survival of MV-4-11 (AML)-tumor bearing mice,[1]; day 53 post treatment start,0
Nc1ccn([C@@H]2O[C@H](CO)[C@@H](O)[C@@H]2O)c(=O)n1 [cytarabine],"Antitumor efficacy, single agent","[2]; 45 mg kg^−1 subcutaneous, 3 days on, 4 days off",neither the Bcl-2 inhibitor venetoclax nor cytarabine showed appreciable single-agent efficacy
same,"anti-tumor efficacy in THP-1 (AML)-tumor bearing mice, individual measurements",[2]; day 1 post treatment start,34.55 and 34.13 and 35.27 and 36.61 and 37.97 and 29.56 and 32.2 and 26.85 and 39.7 and 33.08
same,"anti-tumor efficacy in THP-1 (AML)-tumor bearing mice, individual measurements",[2]; day 3 post treatment start,56.73 and 43.71 and 46.59 and 40.5 and 59.56 and 37.55 and 48.92 and 32.47 and 41.3 and 50.46
same,"anti-tumor efficacy in THP-1 (AML)-tumor bearing mice, individual measurements",[2]; day 6 post treatment start,60.86 and 46.12 and 47.28 and 41.77 and 70.74 and 42.28 and 63.75 and 27.68 and 36.96 and 52.92
same,"anti-tumor efficacy in THP-1 (AML)-tumor bearing mice, individual measurements",[2]; day 8 post treatment start,80.75 and 48.31 and 57.33 and 37.06 and 69.84 and 40.98 and 72.57 and 28.68 and 37.62 and 62.2
same,"anti-tumor efficacy in THP-1 (AML)-tumor bearing mice, individual measurements",[2]; day 10 post treatment start,87.52 and 55.21 and 72.45 and 39.84 and 85.66 and 45.49 and 94.07 and 29.37 and 34.83 and 74.1
same,"anti-tumor efficacy in THP-1 (AML)-tumor bearing mice, individual measurements",[2]; day 13 post treatment start,101.88 and 64.15 and 91.89 and 43.02 and 99.25 and 47.84 and 115.35 and 31.51 and 35.25 and 76.99
